Reference: article PMC6780696, “New Peptides from The Marine-Derived Fungi Aspergillus allahabadii and Aspergillus ochraceopetaliformis” (Marine Drugs, 2019)
pIC50: −log10 of the molar value. Positions of bridges follow the written chain, without caps; N, C: chain ends. Non-standard residues stand in square brackets, D forms with d. Residues, ends and D or L forms follow the SMILES beside them. NMeF = CN[C@@H](Cc1ccccc1)C(=O)O

What was measured:
Bacillus cereus = system: Bacillus cereus; parameters: method as in PMID 25001296; details: cited from earlier work
[1] = system: Staphylococcus epidermidis; parameters: method as in PMID 25001296; details: cited from earlier work
[2] = molecular target: T1, recombinant ICL from C. albicans (Candida albicans, UniProt Q9P8Q7); assay: ICL inhibition assay; format: biochemical; details: 37 °C, 30 min
T1 construct: made in house
Protocol: The recombinant ICL from C. albicans was prepared and the inhibitory activity of the test compounds against ICL was determined by previously documented procedures. […] The increase in intensity of absorbance resulting from the formation of glyoxylate phenylhydrazone was observed using an UVmini-1240 spectrophotometer (SHIMADZU, Tokyo, Japan) at a wavelength of 324 nm. A known ICL inhibitor, 3-nitropropionic acid, was used as a reference control.

[3] = molecular target: T2, S. aureus-derived recombinant SrtA (Staphylococcus aureus, UniProt Q2FV99); assay: biochemical
T2 construct: made in house; host or cells: E. coli

[4] = molecular target: isocitrate lyase (ICL) derived from C. albicans; parameters: method as in PMID 31167388; details: previously reported; cited from earlier work

T2 sequence (Q2FV99 whole entry): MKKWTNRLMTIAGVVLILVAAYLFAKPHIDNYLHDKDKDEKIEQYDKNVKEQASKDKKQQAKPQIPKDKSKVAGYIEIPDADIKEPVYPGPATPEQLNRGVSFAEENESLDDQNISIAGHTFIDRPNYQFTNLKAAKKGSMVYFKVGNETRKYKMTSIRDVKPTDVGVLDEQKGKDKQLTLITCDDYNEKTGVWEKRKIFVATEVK
T1 sequence (Q9P8Q7 whole entry): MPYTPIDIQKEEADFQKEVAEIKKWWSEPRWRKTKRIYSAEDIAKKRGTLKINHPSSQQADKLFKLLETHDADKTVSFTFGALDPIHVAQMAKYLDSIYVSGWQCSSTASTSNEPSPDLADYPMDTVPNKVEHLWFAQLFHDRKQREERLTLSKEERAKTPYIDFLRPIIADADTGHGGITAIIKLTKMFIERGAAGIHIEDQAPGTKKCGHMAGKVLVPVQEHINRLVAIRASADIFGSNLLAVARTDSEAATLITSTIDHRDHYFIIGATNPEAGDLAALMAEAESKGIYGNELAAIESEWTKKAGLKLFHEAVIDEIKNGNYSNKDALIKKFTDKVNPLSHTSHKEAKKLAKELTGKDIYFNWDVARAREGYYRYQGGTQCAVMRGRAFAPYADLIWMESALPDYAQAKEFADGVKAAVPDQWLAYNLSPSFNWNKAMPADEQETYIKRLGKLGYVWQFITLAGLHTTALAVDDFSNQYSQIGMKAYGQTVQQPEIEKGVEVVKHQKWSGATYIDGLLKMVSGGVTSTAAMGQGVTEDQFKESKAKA

| Compound | pIC50 [3] | other results |
| --- | --- | --- |
| asperpeptide A |  | MIC (Bacillus cereus): 12.5 µM; MIC [1]: 12.5 µM |
| O=C(O)CC[N+](=O)[O-] [3-Nitropropionic acid] |  | pIC50 [2]: 4.73 |
| CC(C)[C@@H]1NC(=O)[C@@H]2CCCN2C(=O)[C@H](Cc2ccc(O)cc2)NC(=O)[C@H](Cc2ccccc2)N(C)C(=O)[C@H](C)NC1=O [Compound 2, JG002CPB] (cyclo(A[NMeF]YPV)) | 4.27 | pIC50 [2]: 3.93 |
| CC(=O)N[C@@H]1C(=O)N[C@H](C(C)C)C(=O)N2CCC[C@H]2C(=O)N[C@@H](Cc2ccc(O)cc2)C(=O)N(C)[C@@H](Cc2ccccc2)C(=O)N[C@@H](C)C(=O)O[C@@H]1C [Compound 3, FJ120DPA] (Ac-T[dV]PY[NMeF]A; ester 1-C) | 3.88 |  |
| CC(C)C[C@@H]1NC(=O)[C@@H]2CCCN2C(=O)[C@H](Cc2ccc(O)cc2)NC(=O)[C@H](Cc2ccccc2)N(C)C(=O)[C@H](C)NC1=O [Compound 1, JG002CPA] (cyclo(A[NMeF]YPL)) | 4.15 |  |
| CC(C)[C@@H]1NC(=O)[C@H](Cc2ccccc2)NC1=O [cyclo(L-Phe-L-Val)] |  | pIC50 [4]: 3.96 |
| COc1ccc2cc3[n+](cc2c1OC)CCc1cc2c(cc1-3)OCO2 [Berberine chloride] | 3.98 |  |
| CC(=O)N[C@H](C(=O)N[C@@H](C(=O)N1CCC[C@H]1C(=O)N[C@@H](Cc1ccc(O)cc1)C(=O)N(C)[C@@H](Cc1ccccc1)C(=O)N[C@@H](C)C(=O)O)C(C)C)[C@@H](C)O [Compound 4, FJ120DPB] (Ac-T[dV]PY[NMeF]A-OH) | 4.11 |  |
